Measurements: PubChem BioAssay (NCI)
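Grown in 96-well plates, cells were treated for 48 hours with each compound at five concentrations. Insufficient inhibition: endpoint recorded as highest concentration tested. Abbreviation: GI50, concentration required for 50% inhibition of growth. Definition used: TGI = concentration required for complete inhibition of growth.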

Key:
Test in all cases: DTP human tumour cell line panel, 48 h
T-47D breast = system: T-47D breast
KM12 colon = system: KM12 colon
HCT-15 colon = system: HCT-15 colon
HT29 colon = system: HT29 colon
SK-OV-3 ovarian = system: SK-OV-3 ovarian
786-0 renal = system: 786-0 renal
UACC-62 melanoma = system: UACC-62 melanoma
HS 578T breast = system: HS 578T breast
BT-549 breast = system: BT-549 breast
NCI-H522 lung = system: NCI-H522 lung
NCI-H226 lung = system: NCI-H226 lung
OVCAR-8 ovarian = system: OVCAR-8 ovarian
MCF7 breast = system: MCF7 breast
UACC-257 melanoma = system: UACC-257 melanoma
DU-145 prostate = system: DU-145 prostate
NCI/ADR-RES ovarian = system: NCI/ADR-RES ovarian
U251 CNS = system: U251 CNS
IGROV1 ovarian = system: IGROV1 ovarian
CAKI-1 renal = system: CAKI-1 renal
RPMI-8226 leukemia = system: RPMI-8226 leukemia
EKVX NSCLC = system: EKVX NSCLC
SK-MEL-2 melanoma = system: SK-MEL-2 melanoma
SNB-19 CNS = system: SNB-19 CNS
TK-10 renal = system: TK-10 renal
SR leukemia = system: SR leukemia
OVCAR-4 ovarian = system: OVCAR-4 ovarian
SK-MEL-5 melanoma = system: SK-MEL-5 melanoma
HOP-92 NSCLC = system: HOP-92 NSCLC
SN12C renal = system: SN12C renal
COLO 205 colon = system: COLO 205 colon
MDA-MB-435 = system: MDA-MB-435
SF-295 CNS = system: SF-295 CNS
PC-3 prostate = system: PC-3 prostate
HCC-2998 colon = system: HCC-2998 colon
OVCAR-3 ovarian = system: OVCAR-3 ovarian
HOP-62 NSCLC = system: HOP-62 NSCLC
MDA-MB-231 breast = system: MDA-MB-231 breast
A498 renal = system: A498 renal
A549 NSCLC = system: A549 NSCLC
NCI-H23 lung = system: NCI-H23 lung
OVCAR-5 ovarian = system: OVCAR-5 ovarian
SNB-75 CNS = system: SNB-75 CNS
HCT-116 colon = system: HCT-116 colon
MALME-3M melanoma = system: MALME-3M melanoma
SK-MEL-28 melanoma = system: SK-MEL-28 melanoma
CCRF-CEM leukemia = system: CCRF-CEM leukemia
NCI-H460 lung = system: NCI-H460 lung
UO-31 renal = system: UO-31 renal
SW-620 colon = system: SW-620 colon
MOLT-4 leukemia = system: MOLT-4 leukemia
SF-268 CNS = system: SF-268 CNS
M14 melanoma = system: M14 melanoma
HL-60(TB) leukemia = system: HL-60(TB) leukemia
RXF 393 renal = system: RXF 393 renal
ACHN renal = system: ACHN renal
K-562 leukemia = system: K-562 leukemia
LOX IMVI melanoma = system: LOX IMVI melanoma
SF-539 CNS = system: SF-539 CNS

## N/C(=C\C(=O)n1nc(-c2ccccc2)cc1N)c1ccccc1
T-47D breast
  GI50: 3.27 µM
  TGI: 26.3 µM
KM12 colon
  GI50: 2.9 µM
  TGI: 14.1 µM
HCT-15 colon
  GI50: 4.09 µM
  TGI: 74.6 µM
HT29 colon
  GI50: 3.46 µM
  TGI: 13 µM
SK-OV-3 ovarian
  GI50: 5.31 µM
  TGI: 39 µM
786-0 renal
  GI50: 7.72 µM
  TGI: 44.3 µM
UACC-62 melanoma
  GI50: 3.09 µM
  TGI: 19.2 µM
HS 578T breast
  GI50: 2.41 µM
  TGI: 13 µM
BT-549 breast
  GI50: 2.56 µM
  TGI: 27.4 µM
NCI-H522 lung
  GI50: 5.24 µM
  TGI: 27.9 µM
NCI-H226 lung
  GI50: 11.2 µM
  TGI: 47.5 µM
OVCAR-8 ovarian
  GI50: 13.8 µM
  TGI: > 100 µM
MCF7 breast
  GI50: 2.86 µM
  TGI: 21.1 µM
UACC-257 melanoma
  GI50: 17.4 µM
  TGI: 70.3 µM
DU-145 prostate
  GI50: 5.39 µM
  TGI: 27.7 µM
NCI/ADR-RES ovarian
  GI50: 3.2 µM
  TGI: > 100 µM
U251 CNS
  GI50: 4.04 µM
  TGI: 19.2 µM
IGROV1 ovarian
  GI50: 6.38 µM
  TGI: 61.7 µM
CAKI-1 renal
  GI50: 5.96 µM
  TGI: 80.4 µM
RPMI-8226 leukemia
  GI50: 2.75 µM
  TGI: 16.2 µM
EKVX NSCLC
  GI50: 5.57 µM
  TGI: 35.9 µM
SK-MEL-2 melanoma
  GI50: 4.96 µM
  TGI: 26.2 µM
SNB-19 CNS
  GI50: 14.9 µM
  TGI: 81.2 µM
TK-10 renal
  GI50: 7.72 µM
  TGI: > 100 µM
SR leukemia
  GI50: 1.59 µM
  TGI: 7.38 µM
OVCAR-4 ovarian
  GI50: 12.5 µM
  TGI: 47.1 µM
SK-MEL-5 melanoma
  GI50: 3.01 µM
  TGI: 12.1 µM
HOP-92 NSCLC
  GI50: 4.59 µM
  TGI: 31.8 µM
SN12C renal
  GI50: 7.96 µM
  TGI: 24.3 µM
COLO 205 colon
  GI50: 3.6 µM
  TGI: 14.7 µM
MDA-MB-435
  GI50: 1.19 µM
  TGI: 3.56 µM
SF-295 CNS
  GI50: 3.48 µM
  TGI: 31.6 µM
PC-3 prostate
  GI50: 4.35 µM
  TGI: 28.9 µM
HCC-2998 colon
  GI50: 11.8 µM
  TGI: 34.2 µM
OVCAR-3 ovarian
  GI50: 2.28 µM
  TGI: 6.46 µM
HOP-62 NSCLC
  GI50: 8.3 µM
  TGI: 32.4 µM
MDA-MB-231 breast
  GI50: 11.3 µM
  TGI: 65.2 µM
A498 renal
  GI50: 2.77 µM
  TGI: 12.5 µM
A549 NSCLC
  GI50: 7.29 µM
  TGI: 81.3 µM
NCI-H23 lung
  GI50: 4.59 µM
  TGI: 22.8 µM
OVCAR-5 ovarian
  GI50: 19.2 µM
  TGI: 61.6 µM
SNB-75 CNS
  GI50: 3.72 µM
  TGI: 52.1 µM
HCT-116 colon
  GI50: 3.77 µM
  TGI: 16 µM
MALME-3M melanoma
  GI50: 7.51 µM
  TGI: 25.2 µM
SK-MEL-28 melanoma
  GI50: 5.84 µM
  TGI: 32.3 µM
CCRF-CEM leukemia
  GI50: 1.34 µM
  TGI: 13.5 µM
NCI-H460 lung
  GI50: 3.55 µM
  TGI: 15.8 µM
UO-31 renal
  GI50: 3.71 µM
  TGI: 65.3 µM
SW-620 colon
  GI50: 3.59 µM
  TGI: 17.2 µM
MOLT-4 leukemia
  GI50: 3.72 µM
  TGI: 17.8 µM
SF-268 CNS
  GI50: 5.14 µM
  TGI: 31.7 µM
M14 melanoma
  GI50: 3.13 µM
  TGI: 14.7 µM
HL-60(TB) leukemia
  GI50: 1.88 µM
  TGI: 5.99 µM
RXF 393 renal
  GI50: 13.3 µM
  TGI: 44.8 µM
ACHN renal
  GI50: 8.29 µM
  TGI: > 100 µM
K-562 leukemia
  GI50: 2.06 µM
  TGI: 24.4 µM
LOX IMVI melanoma
  GI50: 6.54 µM
  TGI: 31.4 µM

## CC(C)[C@H]1CC[C@H]2[C@@H](CC[C@H]3[C@](C)(CN)CCC[C@]23C)C1
T-47D breast
  GI50: 1.96 µM
  TGI: 4.52 µM
KM12 colon
  GI50: 1.79 µM
  TGI: 3.18 µM
HCT-15 colon
  GI50: 1.81 µM
  TGI: 3.98 µM
HT29 colon
  GI50: 1.65 µM
  TGI: 3.3 µM
SK-OV-3 ovarian
  GI50: 4.25 µM
  TGI: 16.3 µM
786-0 renal
  GI50: 1.82 µM
  TGI: 3.24 µM
UACC-62 melanoma
  GI50: 3.38 µM
  TGI: 14.3 µM
HS 578T breast
  GI50: 2.45 µM
  TGI: 6.67 µM
BT-549 breast
  GI50: 15.6 µM
  TGI: 37.5 µM
NCI-H522 lung
  GI50: 1.91 µM
  TGI: 3.82 µM
NCI-H226 lung
  GI50: 4.99 µM
  TGI: 23.5 µM
OVCAR-8 ovarian
  GI50: 2.61 µM
  TGI: 5.62 µM
MCF7 breast
  GI50: 1.51 µM
  TGI: 2.85 µM
UACC-257 melanoma
  GI50: 2.68 µM
  TGI: 6.02 µM
DU-145 prostate
  GI50: 1.95 µM
  TGI: 3.58 µM
NCI/ADR-RES ovarian
  GI50: 2.08 µM
  TGI: 3.93 µM
U251 CNS
  GI50: 1.67 µM
  TGI: 3.08 µM
SF-539 CNS
  GI50: 1.59 µM
  TGI: 2.95 µM
CAKI-1 renal
  GI50: 1.71 µM
  TGI: 4.2 µM
RPMI-8226 leukemia
  GI50: 2.9 µM
  TGI: 12.2 µM
EKVX NSCLC
  GI50: 4.11 µM
  TGI: 17 µM
SK-MEL-2 melanoma
  GI50: 2.57 µM
  TGI: 5.99 µM
SNB-19 CNS
  GI50: 3.19 µM
  TGI: 12.9 µM
TK-10 renal
  GI50: 2.19 µM
  TGI: 7.9 µM
SR leukemia
  GI50: 2.65 µM
  TGI: 15.2 µM
OVCAR-4 ovarian
  GI50: 4.36 µM
  TGI: 20.3 µM
SK-MEL-5 melanoma
  GI50: 4.87 µM
  TGI: 17.3 µM
HOP-92 NSCLC
  GI50: 1.22 µM
  TGI: 8.12 µM
SN12C renal
  GI50: 1.75 µM
  TGI: 3.65 µM
COLO 205 colon
  GI50: 1.74 µM
  TGI: 3.27 µM
MDA-MB-435
  GI50: 2.13 µM
  TGI: 4.69 µM
SF-295 CNS
  GI50: 1.83 µM
  TGI: 3.87 µM
PC-3 prostate
  GI50: 2.36 µM
  TGI: 7.14 µM
HCC-2998 colon
  GI50: 1.79 µM
  TGI: 3.18 µM
OVCAR-3 ovarian
  GI50: 1.96 µM
  TGI: 3.84 µM
HOP-62 NSCLC
  GI50: 1.89 µM
  TGI: 3.48 µM
MDA-MB-231 breast
  GI50: 2.05 µM
  TGI: 4.51 µM
A498 renal
  GI50: 13.2 µM
  TGI: 27 µM
A549 NSCLC
  GI50: 2.18 µM
  TGI: 4.23 µM
NCI-H23 lung
  GI50: 1.79 µM
  TGI: 3.39 µM
OVCAR-5 ovarian
  GI50: 1.73 µM
  TGI: 3.44 µM
SNB-75 CNS
  GI50: 6.95 µM
  TGI: 21.3 µM
HCT-116 colon
  GI50: 1.72 µM
  TGI: 3.09 µM
MALME-3M melanoma
  GI50: 2.48 µM
  TGI: 7.47 µM
SK-MEL-28 melanoma
  GI50: 16.8 µM
  TGI: 30.8 µM
CCRF-CEM leukemia
  GI50: 3.42 µM
  TGI: 12.8 µM
NCI-H460 lung
  GI50: 1.68 µM
  TGI: 3.31 µM
UO-31 renal
  GI50: 1.76 µM
  TGI: 4.21 µM
SW-620 colon
  GI50: 1.84 µM
  TGI: 3.49 µM
MOLT-4 leukemia
  GI50: 2.21 µM
  TGI: 5.2 µM
SF-268 CNS
  GI50: 2.36 µM
  TGI: 6.04 µM
M14 melanoma
  GI50: 1.77 µM
  TGI: 3.18 µM
HL-60(TB) leukemia
  GI50: 1.8 µM
  TGI: 4.23 µM
RXF 393 renal
  GI50: 2 µM
  TGI: 3.84 µM
ACHN renal
  GI50: 2.42 µM
  TGI: 6.44 µM
K-562 leukemia
  GI50: 2.25 µM
  TGI: 5.31 µM
LOX IMVI melanoma
  GI50: 1.61 µM
  TGI: 2.98 µM
